Results taken from patent publication US20250154143A1, “PRODRUGS FOR USE IN THE TREATMENT OF TISSUE DAMAGE” (UCL BUSINESS LTD, priority 2021, published 2025).
Values after ≈ are worked out from the molar mass of the structure shown. Counter-ions that a name gives are not always drawn.

What was measured:
[1] = Thermodynamic solubility in PBS, FaSSIF and SGF; format: physicochemical; details: thermodynamic from solid, room temperature
Protocol: A known quantity of the Examples and control compounds were weighed into a suitable vessel (whatman miniuniprep vials) and a known volume of the required media was added (e.g. Simulated Gastric Fluid pH 1.2 [SGF], Simulated Fasted State Intestinal Fluid pH 6.5 [FaSSIF] or Phosphate Buffered Saline pH 7.4 [PBS]). The samples were subjected to vortex mixing for 2 minutes followed by agitation on a shaker for 24 hours at room temperature at 800 rpm. The samples were then centrifuged for 20 minutes at 4000 rpm, the miniuniprep vials compressed and the filtrates analysed by HPLC (Waters Xbridge C18 4.6×100 mm, mobile phase A: 0.1% TFA in water, mobile phase B: 0.1% TFA in acetonitrile).

[2] = Stability in FaSSIF, SGF and PBS; format: physicochemical; details: 37° C.
Protocol: 10 μL of a 10 mM stock solution of the Examples were dissolved in 490 μL DMSO to afford […] working solution
Dissolve 0.04 g NaCl and 0.064 g pepsin in 0.14 mL HCl and add sufficient water to 20 mL volume. The pH of the test solution was 1.20±0.05.
0.056% (w/v) lecithin, 0.161% (w/v) sodium taurocholate, 0.39% (w/v) monobasic potassium phosphate, 0.77% (w/v) potassium chloride, deionized H2O. The pH of the test solution was 6.5±0.05.
30 mL of 10×PBS (pH7.4) was added into a 50 mL flask and diluted with water. The solution was mixed well and adjusted to pH 7.4 with 1N HCl.
Protocol for Determining Stability 2 μL of the 200 μL working solution of the Examples was added into 96-deep-well plates for T0, T60, T120, T360 and T1440 timepoints. Duplicates were prepared.
Stability studies were commenced by the addition of 198 μL of the required media (e.g. Simulated Gastric Fluid pH 1.2 [SGF], Simulated Fasted State Intestinal Fluid pH 6.5 [FaSSIF]) and Phosphate Buffered Saline pH 7.4 [PBS]) to each well except T0. The samples were incubated at 37° C. at 600 rpm for the appointed time. The samples at the corresponding timepoint were removed and immediately mixed with 400 μL of 0.3% FA in MeCN containing 200 ng/mL tolbutamide and labetalol (internal standard). 200 μL of suspension was removed and mixed with 400 μL of 0.3% FA in cold MeCN containing 200 ng/mL tolbutamide and labetalol. The samples were centrifuged at 4000 rpm at 4° C. for 20 minutes. 60 μL of the supernatant was removed and mixed with 180 μL purified water and thoroughly mixed and analysed by LCMS (Shimadzu LC 30-AD, ACQUITY UPLC HSS T3 1.8 um 2.1*50 mm Part No. 186003538, with mobile phase A: 0.1% formic acid in water, mobile phase B: 0.1% formic acid in MeCN. Formation of parent was also monitored as a metabolite.
Samples were analysed by Mass Spectrometry QTRAP 6500+

human CRP = target: T1, human CRP (Homo sapiens, UniProt P02741); details: rat acute myocardial infarction model, rats receiving human CRP; cited from earlier work
T1 construct: The final concentrations were 0.73 μM native pentameric CRP; from tissue
T1 sequence (P02741 19-224): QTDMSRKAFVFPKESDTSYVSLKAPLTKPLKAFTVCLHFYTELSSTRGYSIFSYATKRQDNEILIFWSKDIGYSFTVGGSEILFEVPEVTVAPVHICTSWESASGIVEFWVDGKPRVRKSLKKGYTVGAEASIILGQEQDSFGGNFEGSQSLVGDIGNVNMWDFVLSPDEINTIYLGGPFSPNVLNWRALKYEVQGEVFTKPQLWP

[3] = Phosphate Buffered Saline (PBS), aqueous buffer, PBS pH 7.4, 24 hour timepoint
[4] = Simulated Fasted State Intestinal Fluid (FaSSIF), FaSSIF pH 6.5, 24 hour timepoint
[5] = Simulated Gastric Fluid (SGF), simulated gastric fluid, SGF pH 1.2, 24 hour timepoint

| SMILES | solubility thermodynamic at 24 h [1, 3] | solubility thermodynamic at 24 h [1, 4] | solubility thermodynamic at 24 h [1, 5] | FaSSIF (pH 6.5) % remaining ([2]; FaSSIF pH 6.5, 6 hr) | FaSSIF (pH 6.5) % remaining ([2]; FaSSIF pH 6.5, 24 h) | PBS (pH 7.4) % remaining ([2]; PBS pH 7.4, 6 h) | PBS (pH 7.4) % remaining ([2]; PBS pH 7.4, 24 h) | SGF (pH 1.2) % remaining ([2]; SGF pH 1.2, 6 h) | SGF (pH 1.2) % remaining ([2]; SGF pH 1.2, 24 h) | Effect on adverse effects of human CRP (human CRP) |
| --- | --- | --- | --- | --- | --- | --- | --- | --- | --- | --- |
| O=C(N[C@@H](C(=O)O)C1CN2CCC1CC2)c1ccc(C(=O)N[C@@H](C(=O)O)C2CN3CCC2CC3)cc1 (stereo partly drawn) [APL-2191.2HCl, (R,2R,2′R)-2,2′-(terephthaloylbis(azanediyl))bis(2-((R)-quinuclidin-3-yl)acetic acid) bis hydrochloride salt] | 1690 µg/mL | 2510 µg/mL | 4560 µg/mL | – | – | – | – | – | – | – |
| CCOC(=O)[C@H](NC(=O)c1ccc(C(=O)N[C@@H](C(=O)OCC)C2CN3CCC2CC3)cc1)C1CN2CCC1CC2 (stereo partly drawn) [Example 12, (R,2R,2′R)-2,2′-(terephthaloylbis(azanediyl))bis(2-((R)-quinuclidin-3-yl)acetic acid) bis ethyl ester] | 5520 µg/mL (≈ 9.94 mM) | 4540 µg/mL (≈ 8.18 mM) | 4000 µg/mL (≈ 7.22 mM) | 105.0% | 95.2% | 84.33% | 87.14% | 101.2% | 92.3% | – |
| C[N+](C)(C)CCOP(=O)([O-])OCCCCCCOP(=O)([O-])OCC[N+](C)(C)C [BPC6, bis(phosphocholine)hexane] | – | – | – | – | – | – | – | – | – | completely abrogate the adverse effects of human CRP |
| COC(=O)[C@H](NC(=O)c1ccc(C(=O)N[C@@H](C(=O)OC)C2CN3CCC2CC3)cc1)C1CN2CCC1CC2 (stereo partly drawn) [Example 1, (R,2R,2′R)-2,2′-(terephthaloylbis(azanediyl))bis(2-((R)-quinuclidin-3-yl)acetic acid) bis methyl ester] | 1220 µg/mL (≈ 2.31 mM) | 4690 µg/mL (≈ 8.9 mM) | 5930 µg/mL (≈ 11.3 mM) | 98.3% | 113.3% | 84.07% | 55.89% | 101.2% | 92.6% | – |
| C[N+](C)(C)CCOP(=O)(O)OCCCCCCCCOP(=O)(O)OCC[N+](C)(C)C [BPC8, bis(phosphocholine)octane] | – | – | – | – | – | – | – | – | – | completely abrogate the adverse effects of human CRP |
| CC(C)OC(=O)[C@H](NC(=O)c1ccc(C(=O)N[C@@H](C(=O)OC(C)C)C2CN3CCC2CC3)cc1)C1CN2CCC1CC2 (stereo partly drawn) [Example 13, (R,2R,2′R)-2,2′-(terephthaloylbis(azanediyl))bis(2-((R)-quinuclidin-3-yl)acetic acid) bis isopropyl ester] | 4560 µg/mL (≈ 7.83 mM) | 5200 µg/mL (≈ 8.93 mM) | 5140 µg/mL (≈ 8.82 mM) | 99.7% | 110.4% | 103.43% | 104.61% | 107.2% | 100.0% | – |
